According to patent US12370241B2, “Nasal powder formulation for treatment of hypoglycemia” (AMPHASTAR PHARMACEUTICALS, INC., priority 2015, dated 2025):
Like-named read-outs stand apart in the source and are kept apart here.

Tests used:
[1] = system: children with type 1 diabetes with induced hypoglycemia; settings: injected (SC) (Stenninger 1993); cited from earlier work
adults with hypoglycemia = settings: cited from earlier work
[2] = system: patients with type 1 diabetes; assay: Phase III crossover study, intranasal vs IM glucagon after insulin-induced hypoglycemia (Example 9); format: in vivo, human; settings: post-dosing
Protocol: A multiple center, randomized, two-way, crossover Phase III study in which patients with type 1 diabetes (T1D, n=75) were enrolled to evaluate the effectiveness and safety of a single dose of intranasally administered glucagon (the powder that is the subject of this invention) compared to glucagon administered by IM injection following insulin-induced hypoglycemia was conducted. The primary endpoint in this study was the proportion of patients who achieved an increase in blood glucose levels to ≥70 mg/dL within 30 minutes of treatment with glucagon or a […] increment in blood glucose within 30 minutes of treatment with glucagon. The protocol used insulin to reduce blood glucose levels to the hypoglycemic range (target nadir of <50 mg/dL).

[3] = water; cited from earlier work

glucagon [injected glucagon]
Time for which plasma glucose levels continued to rise [1]: at least 45 minutes | Time for which glucose levels continued to increase after administration (adults with hypoglycemia; adults with hypoglycemia, injected (Hvidberg 1994; Rosenfalck 1992)): at least 90 minutes | Time after dosing at which glucose levels reach a plateau (adults with hypoglycemia; adults with type 1 diabetes and insulin-induced hypoglycemia, injected (Rosenfalck 1992)): at least 90 minutes | Time for which glucose levels continued to increase after administration (adults with hypoglycemia; healthy adults with insulin induced hypoglycemia, injected (Hvidberg 1994)): at least 90 minutes | Time by which blood glucose increased to within the normal range in most subjects [2]: about 15 minutes

hydroxylpropyl-β-CD [HP-β-CD]
Aqueous solubility [3]: higher aqueous solubility than α-CD
